Test results reported in PMC5537696 (2017).
One block for each compound: values may come before it.

Experiments:
[1] = test system: LLA (long loop ATP hairpin aptamer) (DNA, aptamer) CACCTGGGGGAGTATTGCGGAGGAAGGTTTTTTTTTTTTTTTTTTTTTTTTTTTTTTTTCCAGGTGTT; assay: surface plasmon field-enhanced fluorescence titration; conditions: 6 mM MgCl2; 10 mM Tris pH 7.4 (HAB); aptamer immobilised on gold; up to 12 mM guanosine
[2] = test system: LLA (long loop ATP hairpin aptamer) (DNA, aptamer) CACCTGGGGGAGTATTGCGGAGGAAGGTTTTTTTTTTTTTTTTTTTTTTTTTTTTTTTTCCAGGTGTT; assay: surface plasmon field-enhanced fluorescence titration, Langmuir isotherm; conditions: 6 mM MgCl2, 10 mM Tris pH 7.4 (HAB)
[3] = test system: SLA (short loop ATP hairpin aptamer) (DNA, aptamer, PEG6 spacer between 29 and 30) CACCTGGGGGAGTATTGCGGAGGAAGGTTCCAGGTG; assay: as above; conditions: 6 mM MgCl2, 10 mM Tris pH 7.4 (HAB)
[4] = aptamer immobilised, fit limited to ATP ≤2 mM, full curve deviates from Langmuir

binding [1]: no
Compound: Nc1nc2c(ncn2[C@@H]2O[C@H](CO)[C@@H](O)[C@H]2O)c(=O)[nH]1

Kd ([2]; aptamer immobilised on gold): 50 µM | Kd ([3]; aptamer immobilised on gold): 90 µM
Compound: Nc1ncnc2c1ncn2[C@@H]1O[C@H](CO)[C@@H](O)[C@H]1O

Kd [2, 4]: 120 µM | Kd [3, 4]: 300 µM
Compound: Nc1ncnc2c1ncn2[C@@H]1O[C@H](COP(=O)(O)OP(=O)(O)OP(=O)(O)O)[C@@H](O)[C@H]1O
